# Like-named read-outs stand apart in the source and are kept apart here.
# How the values were obtained:
# [1] = 50 mg/mL elraglusib solutions in 12 Vehicle Variants, HPLC with and without syringe filtration; type: physicochemical; settings: no precipitation or haziness, no visible particulates
# Description: An initial study prepared 50 mg/mL elraglusib solutions in 12 Vehicle Variants.
# Each Vehicle Variant was made to 50 mg/mL with elraglusib and was tested (with and without syringe filtration) with respect to: (1) elraglusib main peak Area %, (2) related substance RRT 0.96 Area %, and (3) related Substance Area % RRT 0.97.
# in vivo = experiment: in vivo; design: species or system Beagle dogs; settings: male, Beagle, dog; for AUC(0-inf): AUCINF; for AUC(0-t): AUClast
# Description: The objective of this study was to evaluate the pharmacokinetic profile of elraglusib following single oral and intravenous doses in Beagle dogs.
# The test article (elraglusib in a vehicle of 85% PEG400, 10% ethanol, 5% water (all components are weight/weight/weight)) was administered orally and via intravenous infusion to dogs according to the tables below.
# Male Beagle dogs were selected for use in this study. Animals were at least 6 months old and males weighed approximately 9.3-10.8 kilograms at the start of dosing.
# The study animals received a single oral dose of elraglusib followed by an approximate 7-day washout period after which they received a single intravenous infusion of elraglusib. Animals underwent standard evaluations such as body weight and clinical observations, and were bled for pharmacokinetics following each dose.
# Plasma concentrations of elraglusib were determined for dogs treated with 20 mg/kg elraglusib via oral administration on Day 1 and then again via intravenous infusion on Day 8. […] Individual plasma concentrations were highest approximately 2-8 hours after oral administration (1,410-1,880 ng/mL), and highest at approximately 5 minutes following intravenous administration (11,800-13,600 ng/mL).
# [2] = Quantitative solubility by HPLC in organic solvents and surfactants; type: physicochemical; settings: for solubility: thermodynamic from solid, read-out: Solubility (n = 2) by HPLC
# Excerpt: The HPLC method 1 was used for solubility, stability monitoring at 438 nm, and drug loading measurements of the ASD is summarized in Table 2A-31 and the HPLC method 2 was used for stability monitoring at 210 nm, which is summarized in Table 2A-32.
structure (smiles),measurement,setting,value
"Cn1cc(C2=C(c3coc4ccc(F)cc34)C(=O)NC2=O)c2cc3c(cc21)OCO3 [elraglusib, 3-(5-fluorobenzofuran-3-yl)-4-(5-methyl-5H-[1,3]dioxolo[4,5-f]indol-7-yl)-1H-pyrrole-2,5-dione]",solubility in Vehicle Variants (visual),[1],remained soluble at 50 mg/mL
same,bioavailability,in vivo,31%
same,"AUClast, IV versus PO",in vivo; 20 mg/kg,approximately 3 fold
same,AUC,"in vivo; iv, 20 mg/kg",68900 ng·h/mL
same,highest individual plasma concentrations,"in vivo; iv, 20 mg/kg","11,800-13,600 ng/mL"
same,time of highest individual plasma concentrations,"in vivo; iv, 20 mg/kg",approximately 5 minutes
same,AUC(0-inf),"in vivo; iv, 20 mg/kg",72800 ng·h/mL
same,AUC(0-t),"in vivo; iv, 20 mg/kg",68900 ng·h/mL
same,Cmax,"in vivo; iv, 20 mg/kg",12800 ng/mL
same,Tmax,"in vivo; iv, 20 mg/kg, Tmax",4.98 min
same,half-life,"in vivo; iv, 20 mg/kg, t1/2",363 min
same,AUC,"in vivo; po, 20 mg/kg",21300 ng·h/mL
same,highest individual plasma concentrations,"in vivo; po, 20 mg/kg","1,410-1,880 ng/mL"
same,time of highest individual plasma concentrations,"in vivo; po, 20 mg/kg",2 to 8 h
same,AUC(0-inf),"in vivo; po, 20 mg/kg",22600 ng·h/mL
same,AUC(0-t),"in vivo; po, 20 mg/kg",21300 ng·h/mL
same,Cmax,"in vivo; po, 20 mg/kg",1670 ng/mL
same,solubility,"[2]; DCM, no surfactant, organic solvent or mixture",15.1 mg/mL
same,solubility,"[2]; H2O with Kolliphor EL 10% w/v, aqueous with cosolvent or surfactant or cyclodextrin, H2O, Kolliphor EL 10% w/v",0.12 mg/mL
same,solubility,"[2]; H2O with Labrasol 10% w/v, aqueous with cosolvent or surfactant or cyclodextrin, H2O, Labrasol 10% w/v",0.16 mg/mL
same,solubility,"[2]; H2O with Tween 80 10% w/v, aqueous with cosolvent or surfactant or cyclodextrin, H2O, Tween 80 10% w/v",0.24 mg/mL
same,solubility,"[2]; THF (with stabilizer BHT), no surfactant, organic solvent or mixture",25.3 mg/mL
same,solubility,"[2]; THF with Kolliphor HS 15 10% w/v, organic solvent or mixture, THF, Kolliphor HS 15 10% w/v",47.6 mg/mL
same,solubility,"[2]; THF with Labrasol 10% w/v, organic solvent or mixture, THF, Labrasol 10% w/v",52.3 mg/mL
same,solubility,"[2]; THF with Poloxamer P188 10% w/v, organic solvent or mixture, THF, Poloxamer P188 10% w/v",49.8 mg/mL
same,solubility,"[2]; THF with TPGS 10% w/v, organic solvent or mixture, THF, TPGS 10% w/v",46.8 mg/mL
same,solubility,"[2]; THF with Tween 80 10% w/v, organic solvent or mixture, THF, Tween 80 10% w/v",49.8 mg/mL
same,Solubility (n = 2) by HPLC,"[2]; THF, Kolliphor EL 10% w/v",48.0 mg/mL
same,Solubility (n = 2) by HPLC,"[2]; THF, no surfactant",52.7 mg/mL
same,solubility,"[2]; THF:H2O (90:10) with Labrasol 10% w/v, organic solvent or mixture, THF:H2O (90:10), Labrasol 10% w/v",54.8 mg/mL
same,Solubility (n = 2) by HPLC,"[2]; THF:H2O (90:10), no surfactant",61.2 mg/mL
same,solubility,"[2]; acetone, no surfactant, organic solvent or mixture",13 mg/mL
same,solubility,"[2]; organic solvent or mixture, DCM:Acetone (1:1), no surfactant",19.8 mg/mL
same,solubility,"[2]; organic solvent or mixture, DCM:Acetone (5:1), no surfactant",24.5 mg/mL
same,solubility,"[2]; organic solvent or mixture, DCM:EtOH (1:1), no surfactant",16.4 mg/mL
same,solubility,"[2]; organic solvent or mixture, DCM:MeOH (8:2), no surfactant",11.8 mg/mL

# From patent US20250325517A1, “ORAL DOSAGE FORMS OF ELRAGLUSIB” (Actuate Therapeutics, Inc., priority 2022, published 2025)
